Results from patent publication US20250152616A1, “COMPOSITIONS FOR AND METHODS OF TREATING, PREVENTING, AND/OR MITIGATING PAIN” (Duke University, priority 2022, published 2025).

Legend:
[1] = test system: mouse model of stabilized unilateral tibial fracture; assay: Open field activity after tibial fracture; format: in vivo
Method: The aim of the experiments described herein was to examine the effectiveness of local delivery of adenosine in tibial bone injury to concurrently attenuate fracture/post-surgical pain while promoting healing. All animal work was performed in compliance with the National Institutes of Health (NIH) and institutional guidelines, and the fracture surgery and biomaterial implantation protocols approved by the Institutional Animal Care and Use Committee at Duke University (Protocol Registry Number A151-20-07) were followed. C57BL/6J mice were used to study fracture nociception and the effect of local delivery of adenosine to mitigate pain and promote bone regeneration. Lepr-cre; tdTomato reporter mice were used for tracing of LepR(+) lineage cells after fracture. To determine the effect of adenosine on pain and healing, fracture surgeries were performed and treated immediately with PEGDA-6ACA-PBA macroporous hydrogels loaded with adenosine as treatment group or without adenosine as control group (Zeng Y, et al. (2020) Adv Mater. 32:e1906022). Behavioral tests for pain and limb function were assessed by weight bearing and open field locomotion. A priori power analysis was used to estimate the sample size requiring a statistical power (1−β) of 80% at the significance level of α=5%. On the basis of the power calculation, the indicated number was 8 animals per group for fracture pain and 4 animals per group for fracture healing. Ten animals per group were used to study the effect of adenosine on fracture pain, and 5 animals per group were used to examine the effect of adenosine on fracture healing. The exclusion criteria for experiments were animals that died due to the surgical procedures or shift of the intramedullary pin identified after experimental endpoint post-mortem. No randomization was used and researchers were not blinded. Measurement of adenosine in the circulation was performed by using an adenosine assay. The in vitro functional activity of DRG neurons was assessed by calcium and membrane potential imaging and the expression of proteins were assessed by histology or immunofluorescence imaging, and gene expression by RT-qPCR. Fracture healing was analyzed by microCT and histology. The study design and timeline of animal procedures (pin placement, surgery, therapeutic intervention with and without adenosine, and behavioral tests) are illustrated in FIG. 10A (weight bearing) and FIG. 10A (open field locomotion).
In all experiments, 12-week-old to 16-week-old C57BL/6J male mice (Jackson Laboratory, Bar Harbor, ME) and Lepr-cre; tdTomato reporter mice were used. The average mouse weight was 25 grams and mice were housed in groups of four to five, and kept on a 12-hr light-dark cycle with lights off at 1800 hr. All animals had ad libitum access to chow (PMI LabDiet 5001) and water. Fracture surgeries were performed as previously described (Zeng Y, et al. (2020) Adv Mater. 32:e1906022). Animals were anesthetized by isoflurane and injected with 1 mg/kg buprenorphine SR-LAB (ZooPharm, Laramie, WY). Each mouse was then placed in a supine position with the right tibia disinfected. After skin incision and reflection, proximal to the right knee, a 0.7-mm pin was inserted from the tibial plateau through the medullary cavity to stabilize the tibia, and a cut was made at the tibial midshaft to induce a transverse fracture. Bupivacaine (0.5%; Hospira, Lake Forest, IL) at ˜1 mg/kg body weight was applied at the surgical site following wound closure using 2 reflex clips (5 mm). For animals treated with control and adenosine-loaded macroporous hydrogels, macroporous hydrogels measuring approximately 5 mm (length)×3 mm (width)×1 mm (thick) containing either 1.05±0.1 mg adenosine (ADO) or no adenosine (CTL) were implanted adjacent to the fractures immediately. […] The animals were treated with the macroporous hydrogels with or without adenosine immediately following the fracture. […]

[2] = test system: bone marrow mesenchymal stromal cells (BM-MSCs); assay: RT-qPCR of osteogenic genes in bone marrow MSCs; format: cell-based, mouse; details: adenosine 30 μg/mL, 14 days, absence of osteogenic induction medium
Method: MSCs were isolated as previously described with some modifications (Shih Y B, et al. (2019) Sci Adv. 5:eaax1387). Briefly, the femurs, tibiae, vertebrae of mice were harvested, crushed with pestle and mortar in harvest buffer (1% v/v FBS in PBS) to release bone marrow (BM) tissue, filtered through a 40-μm cell strainer, and centrifuged at 200 rcf. Cells were seeded in a 24-well plate at a cell density of 1 million cells/cm^2 in growth media (GM) containing α-MEM, FBS (10% v/v, ThermoFisher, Cat #16000044), penicillin/streptomycin (10000 U/mL; 1% v/v) and cultured in humidified incubator (37° C., 5% CO2). The medium was replaced after 3 days and further cultured for 6 days before passage. For passaging, cells were incubated in 0.25% trypsin-EDTA for 2 min at 37° C., detached with a cell scraper, neutralized by using GM, centrifuged, and sub-cultured at a density of 8000 cells/cm^2. All experiments were performed between 1-2 passage. Osteogenic medium (OM) was prepared by supplementing GM with 10 mM β-glycerophosphate (MilliporeSigma, Cat #G9422), 50 μM ascorbic acid-2-phosphate (MilliporeSigma, Cat #A8960), and 100 nM dexamethasone (MilliporeSigma, Cat #D4902).
Cells, DRG, or bone/marrow tissues were analyzed for gene expression by quantitative real-time polymerase chain reaction (RT-qPCR). Nucleic acids were extracted with TRIzol, phase-separated with chloroform, and precipitated in isopropanol. […] Quantitative PCR was performed with iTaq Universal SYBR green reagent (Bio-Rad, Cat #1725124) with denaturation at 95° C. for 30 sec for one cycle, and amplification (denaturation+annealing/extension) at 95° C. for 5 sec and 60° C. for 30 sec for 40 cycles on a polymerase chain reaction (PCR) cycler (Bio-Rad, CFX96 Touch). […]
The expression level of each target gene was normalized to the housekeeping gene and to their respective controls and presented as fold change expressed as 2^−ΔΔCt values. […]

[3] = 7 dpf, sum over 60 min, ratio post-/pre-fracture

Compound: Nc1ncnc2c1ncn2[C@@H]1O[C@H](CO)[C@@H](O)[C@H]1O [adenosine]
- effect size of treatment on open field parameters ([1]; 7 dpf, effect size r and Cohen's d, all measured parameters): large effect sizes
- ambulatory activity counts vs control [1, 3]: significantly higher
- ambulatory time vs control [1, 3]: significantly higher
- rest time vs control [1, 3]: lower
- total distance vs control [1, 3]: significantly higher
- vertical activity counts vs control [1, 3]: significantly higher
- vertical movement time vs control [1, 3]: significantly higher
- open field activity vs control at 5-min intervals (vertical, ambulatory, distance; lower rest time) ([1]; 7 days post-fracture, most of the 5-min intervals, ratio post-/pre-fracture): higher levels of activity
- Ibsp gene expression [2]: upregulated
- Runx2 gene expression [2]: upregulated
- Sp7 gene expression [2]: upregulated
